{
  "source": "ChEMBL document CHEMBL6103623",
  "about": "“Phenolics and Phenolic Glycosides from Wrightia pubescens and Their Hepatoprotective Activities” (J Nat Prod, 2025)",
  "key": {"HepG2 [1]": {"tested_on": "HepG2", "test": "Hepatoprotective activity against APAP-induced cell injury in human HepG2 cells assessed as reduction in ALT level at 6.25 to 25 uM preincubated for 24 hrs followed by APAP addition and measured after 24 hrs", "assay_type": "functional, cell-based", "conditions": "dose 6.25-25 µM, time 48.0 hrs"}, "HepG2 [2]": {"tested_on": "HepG2", "test": "Hepatoprotective activity against APAP-induced cell injury in human HepG2 cells assessed as increase in survival rate preincubated for 24 hrs followed by APAP addition and measured after 24 hrs by MTT assay", "assay_type": "functional, cell-based", "conditions": "dose 6.25-25 µM, time 48.0 hrs"}, "HepG2 [3]": {"tested_on": "HepG2", "test": "Cytotoxicity against human HepG2 cells assessed as reduction in cell viability at 100 uM incubated for 48 hrs by MTT assay", "assay_type": "toxicity, cell-based", "conditions": "hepg2, 48 h"}, "HepG2 [4]": {"tested_on": "HepG2", "test": "Hepatoprotective activity against APAP-induced cell injury in human HepG2 cells assessed as reduction in AST level at 6.25 to 25 uM preincubated for 24 hrs followed by APAP addition and measured after 24 hrs", "assay_type": "functional, cell-based", "conditions": "dose 6.25-25 µM, time 48.0 hrs"}, "HepG2 [5]": {"tested_on": "HepG2", "test": "Hepatoprotective activity against APAP-induced cell injury in human HepG2 cells assessed as reduction in ALT level at 10 uM preincubated for 24 hrs followed by APAP addition and measured after 24 hrs", "assay_type": "functional, cell-based", "conditions": "time 48.0 hrs"}, "HepG2 [6]": {"tested_on": "HepG2", "test": "Hepatoprotective activity against APAP-induced cell injury in human HepG2 cells assessed as reduction in AST level at 10 uM preincubated for 24 hrs followed by APAP addition and measured after 24 hrs", "assay_type": "functional, cell-based", "conditions": "time 48.0 hrs"}, "HepG2 [7]": {"tested_on": "HepG2", "test": "Hepatoprotective activity against APAP-induced cell injury in human HepG2 cells assessed as increase in GSH-Px activity at 6.25 to 25 uM preincubated for 24 hrs followed by APAP addition and measured after 24 hrs", "assay_type": "functional, cell-based", "conditions": "dose 6.25-25 µM, time 48.0 hrs"}, "HepG2 [8]": {"tested_on": "HepG2", "test": "Hepatoprotective activity in human HepG2 cells assessed as inhibition of APAP-induced increase in Bax expression preincubated for 24 hrs followed by APAP addition and measured after 24 hrs by Western blot analysis", "assay_type": "functional, cell-based", "conditions": "dose 6.25-25 µM, time 48.0 hrs"}, "HepG2 [9]": {"tested_on": "HepG2", "test": "Hepatoprotective activity against APAP-induced human HepG2 cell apoptosis assessed as late apoptotic cells at 25 uM incubated for 24 hrs in presence of APAP by Annexin V-FITC/PI staining based flow cytometry (reference value: 11.01%)", "assay_type": "functional"}, "HepG2 [10]": {"tested_on": "HepG2", "test": "Hepatoprotective activity in human HepG2 cells assessed as reduction in APAP-induced increased in ROS level at 25 uM measured after 24 hrs in presence of APAP by DCF staining based flow cytometry", "assay_type": "functional, cell-based"}, "HepG2 [11]": {"tested_on": "HepG2", "test": "Hepatoprotective activity against APAP-induced human HepG2 cell apoptosis assessed as viable cells at 25 uM incubated for 24 hrs in presence of APAP by Annexin V-FITC/PI staining based flow cytometry (Rvb=62.69%)", "assay_type": "functional", "conditions": "read-out: Activity"}, "HepG2 [12]": {"tested_on": "HepG2", "test": "Hepatoprotective activity against APAP-induced cell injury in human HepG2 cells assessed as increase in Nrf2 expression at 6.25 to 25 uM preincubated for 24 hrs followed by APAP addition and measured after 24 hrs by Western blot analysis", "assay_type": "functional, cell-based", "conditions": "dose 6.25-25 µM, time 48.0 hrs"}, "HepG2 [13]": {"tested_on": "HepG2", "test": "Hepatoprotective activity against APAP-induced cell injury in human HepG2 cells assessed as increase in GPX4 expression at 6.25 to 25 uM preincubated for 24 hrs followed by APAP addition and measured after 24 hrs by Western blot analysis", "assay_type": "functional, cell-based", "conditions": "dose 6.25-25 µM, time 48.0 hrs"}, "HepG2 [14]": {"tested_on": "HepG2", "test": "Hepatoprotective activity against APAP-induced cell injury in human HepG2 cells assessed as increase in HO-1 expression at 6.25 to 25 uM preincubated for 24 hrs followed by APAP addition and measured after 24 hrs by Western blot analysis", "assay_type": "functional, cell-based", "conditions": "dose 6.25-25 µM, time 48.0 hrs"}, "HepG2 [15]": {"tested_on": "HepG2", "test": "Hepatoprotective activity against APAP-induced human HepG2 cell apoptosis assessed as early apoptotic cells at 25 uM incubated for 24 hrs in presence of APAP by Annexin V-FITC/PI staining based flow cytometry (reference value: 25.81%)", "assay_type": "functional"}, "HepG2 [16]": {"tested_on": "HepG2", "test": "Hepatoprotective activity against APAP-induced human HepG2 cell apoptosis assessed as necrotic cells at 25 uM incubated for 24 hrs in presence of APAP by Annexin V-FITC/PI staining based flow cytometry (reference value: 0.49%)", "assay_type": "functional"}, "HepG2 [17]": {"tested_on": "HepG2", "test": "Hepatoprotective activity in human HepG2 cells assessed as restoration of APAP-induced inhibition of Bcl-2 expression preincubated for 24 hrs followed by APAP addition and measured after 24 hrs by Western blot analysis", "assay_type": "functional, cell-based", "conditions": "dose 6.25-25 µM, time 48.0 hrs"}},
  "note": "The source made the active and inactive calls. No cut-off for these calls is given here.",
  "data": [
    {"smiles": "COc1cc(C(=O)OC[C@H]2O[C@@H](Oc3cc(OC)c(OC)c(OC)c3)[C@H](O)[C@@H](O)[C@@H]2O)ccc1O", "values": [
      {"measurement": "Activity", "setting": "HepG2 [1]", "value": "Active; Significant Effect Observed"},
      {"measurement": "Activity", "setting": "HepG2 [2]", "value": "Dose-dependent-effect"},
      {"measurement": "Activity", "setting": "HepG2 [3]", "value": "Non-toxic"},
      {"measurement": "Activity", "setting": "HepG2 [4]", "value": "Active; Significant Effect Observed"}
    ]},
    {"smiles": "COc1cc(O[C@@H]2O[C@H](COC(=O)c3cc(OC)c(O)c(OC)c3)[C@@H](O[C@@H]3O[C@H](CO)[C@@H](O)[C@H](O)[C@H]3O)[C@H](O)[C@H]2O)ccc1O", "values": [
      {"measurement": "Activity", "setting": "HepG2 [1]", "value": "Active; Significant Effect Observed"},
      {"measurement": "Activity", "setting": "HepG2 [2]", "value": "Dose-dependent-effect"},
      {"measurement": "Activity", "setting": "HepG2 [3]", "value": "Non-toxic"},
      {"measurement": "Activity", "setting": "HepG2 [4]", "value": "Active; Significant Effect Observed"}
    ]},
    {"smiles": "CCCCO[C@H]1OC[C@](O)(COC(=O)c2ccc(O)c(OC)c2)[C@H]1O", "values": [
      {"measurement": "Activity", "setting": "HepG2 [1]", "value": "Active; Significant Effect Observed"},
      {"measurement": "Activity", "setting": "HepG2 [2]", "value": "Dose-dependent-effect"},
      {"measurement": "Activity", "setting": "HepG2 [3]", "value": "Non-toxic"},
      {"measurement": "Activity", "setting": "HepG2 [4]", "value": "Active; Significant Effect Observed"}
    ]},
    {"smiles": "COc1cc(CO)ccc1O[C@@H]1O[C@H](COC(=O)c2cc(OC)c(O)c(OC)c2)[C@@H](O[C@@H]2O[C@H](CO)[C@@H](O)[C@H](O)[C@H]2O)[C@H](O)[C@H]1O", "values": [
      {"measurement": "Activity", "setting": "HepG2 [1]", "value": "Active; Significant Effect Observed"},
      {"measurement": "Activity", "setting": "HepG2 [2]", "value": "Dose-dependent-effect"},
      {"measurement": "Activity", "setting": "HepG2 [3]", "value": "Non-toxic"},
      {"measurement": "Activity", "setting": "HepG2 [4]", "value": "Active; Significant Effect Observed"}
    ]},
    {"smiles": "COc1cc(O[C@@H]2O[C@H](CO)[C@@H](O)[C@H](O)[C@H]2O[C@@H]2OC[C@](O)(COC(=O)c3ccc(O)c(OC)c3)[C@H]2O)ccc1O", "values": [
      {"measurement": "Activity", "setting": "HepG2 [1]", "value": "Active; Significant Effect Observed"},
      {"measurement": "Activity", "setting": "HepG2 [2]", "value": "Dose-dependent-effect"},
      {"measurement": "Activity", "setting": "HepG2 [3]", "value": "Non-toxic"},
      {"measurement": "Activity", "setting": "HepG2 [4]", "value": "Active; Significant Effect Observed"}
    ]},
    {"smiles": "CCCCO[C@@H]1OC[C@](O)(COC(=O)c2ccc(O)c(OC)c2)[C@H]1O", "values": [
      {"measurement": "Activity", "setting": "HepG2 [1]", "value": "Active; Significant Effect Observed"},
      {"measurement": "Activity", "setting": "HepG2 [2]", "value": "Dose-dependent-effect"},
      {"measurement": "Activity", "setting": "HepG2 [3]", "value": "Non-toxic"},
      {"measurement": "Activity", "setting": "HepG2 [4]", "value": "Active; Significant Effect Observed"}
    ]},
    {"smiles": "COc1cc([C@@H]2Oc3cc([C@H]4Oc5cc(O)cc(O)c5C(=O)[C@@H]4O)ccc3O[C@H]2CO)ccc1O", "values": [
      {"measurement": "Activity", "setting": "HepG2 [5]", "value": "Active"},
      {"measurement": "Activity", "setting": "HepG2 [6]", "value": "Active"}
    ]},
    {"smiles": "COc1cc(O[C@@H]2O[C@H](COC(=O)c3ccc(O)c(OC)c3)[C@@H](O[C@@H]3O[C@H](CO)[C@@H](O)[C@H](O)[C@H]3O)[C@H](O)[C@H]2O)ccc1O", "values": [
      {"measurement": "Activity", "setting": "HepG2 [1]", "value": "Active; Significant Effect Observed"},
      {"measurement": "Activity", "setting": "HepG2 [2]", "value": "Dose-dependent-effect"},
      {"measurement": "Activity", "setting": "HepG2 [7]", "value": "Active"},
      {"measurement": "inhibition", "setting": "HepG2 [8]", "value": "Dose-dependent-effect; Significant Effect Observed"},
      {"measurement": "Activity", "setting": "HepG2 [3]", "value": "Non-toxic"},
      {"measurement": "Activity", "setting": "HepG2 [9]", "value": 9.43, "unit": "%"},
      {"measurement": "Activity", "setting": "HepG2 [10]", "value": "Active"},
      {"measurement": "viability at 25 µM", "setting": "HepG2 [11]", "value": 69.2, "unit": "%"},
      {"measurement": "Activity", "setting": "HepG2 [12]", "value": "Active"},
      {"measurement": "Activity", "setting": "HepG2 [13]", "value": "Active"},
      {"measurement": "Activity", "setting": "HepG2 [14]", "value": "Active"},
      {"measurement": "Activity", "setting": "HepG2 [15]", "value": 20.51, "unit": "%"},
      {"measurement": "Activity", "setting": "HepG2 [16]", "value": 0.9, "unit": "%"},
      {"measurement": "Activity", "setting": "HepG2 [17]", "value": "Dose-dependent-effect; Significant Effect Observed"},
      {"measurement": "Activity", "setting": "HepG2 [4]", "value": "Active; Significant Effect Observed"}
    ]}
  ]
}
